Laboratory results: US20210254056A1, “IDENTIFICATION AND TARGETED MODULATION OF GENE SIGNALING NETWORKS” (CAMP4 THERAPEUTICS CORPORATION, priority 2017, published 2021)

Tested on: hepatocytes
Test: RNA-seq of hepatocytes treated with Phase III failure compounds
Procedure: RNA-seq was performed to determine the effects of the compounds on hepatocytes.
Significance was determined by the criteria of FPKM≥0.5, a log 2(fold-change)≥1, and a […].

CCC(CC)[C@H](NC(C)=O)[C@@H]1[C@H](O)[C@@H](C(=O)O)C[C@H]1NC(=N)N.O.O.O [peramivir (trihydrate), peramivir]
RNA-seq results, gene PFKM (PFKM expression in hepatocytes): 0.02 | RNA-seq results, gene PGM1 (PGM1 expression in hepatocytes): 0.01 | RNA-seq results, gene PHGDH (PHGDH expression in hepatocytes): 0.67 | RNA-seq results, gene PHKA1 (PHKA1 expression in hepatocytes): 0.42 | RNA-seq results, gene PHKA2 (PHKA2 expression in hepatocytes): −0.03 | RNA-seq results, gene PHKB (PHKB expression in hepatocytes): −0.06 | RNA-seq results, gene PHYH (PHYH expression in hepatocytes): −0.05 | RNA-seq results, gene PIEZO1 (PIEZO1 expression in hepatocytes): 0.08 | RNA-seq results, gene PIGA (PIGA expression in hepatocytes): −0.01 | RNA-seq results, gene PIGM (PIGM expression in hepatocytes): 0.04 | RNA-seq results, gene PKD1 (PKD1 expression in hepatocytes): 0.39 | RNA-seq results, gene PKD2 (PKD2 expression in hepatocytes): −0.13 | RNA-seq results, gene PKHD1 (PKHD1 expression in hepatocytes): −0.79 | RNA-seq results, gene PKLR (PKLR expression in hepatocytes): 0.01 | RNA-seq results, gene PLA2G6 (PLA2G6 expression in hepatocytes): 0.31 | RNA-seq results, gene PLEKHM1 (PLEKHM1 expression in hepatocytes): 0.52 | RNA-seq results, gene PMVK (PMVK expression in hepatocytes): 0.33 | RNA-seq results, gene PNP (PNP expression in hepatocytes): 0.05 | RNA-seq results, gene PNPLA2 (PNPLA2 expression in hepatocytes): 0.19 | significant modulation of expression of disease genes (RNA-seq, q≤0.05, hepatocytes, genes in the value or listed in the block): significantly (q≤0.05) modulate expression of RMRP | RNA-seq results: A1BG expression (gene A1BG, hepatocytes): 0.02 | RNA-seq results: AARS2 expression (gene AARS2, hepatocytes): 0.27 | RNA-seq results: AASS expression (gene AASS, hepatocytes): −0.12 | RNA-seq results: ABAT expression (gene ABAT, hepatocytes): −0.09 | RNA-seq results: ABCA1 expression (gene ABCA1, hepatocytes): −0.04 | RNA-seq results: ABCB4 expression (gene ABCB4, hepatocytes): 0.01 | RNA-seq results: ABCB11 expression (gene ABCB11, hepatocytes): 0.20 | RNA-seq results: ABCC2 expression (gene ABCC2, hepatocytes): 0.02 | RNA-seq results: ABCC3 expression (gene ABCC3, hepatocytes): 0.32 | RNA-seq results: ABCC6 expression (gene ABCC6, hepatocytes): 0.47 | RNA-seq results: ABCD1 expression (gene ABCD1, hepatocytes): 0.25 | RNA-seq results: ABCD3 expression (gene ABCD3, hepatocytes): −0.28 | RNA-seq results: ABCG5 expression (gene ABCG5, hepatocytes): 0.09 | RNA-seq results: ABCG8 expression (gene ABCG8, hepatocytes): 0.06 | RNA-seq results: ABHD5 expression (gene ABHD5, hepatocytes): −0.22 | RNA-seq results: ACACA expression (gene ACACA, hepatocytes): 0.04 | RNA-seq results: ACACB expression (gene ACACB, hepatocytes): 0.36 | RNA-seq results: ACAD9 expression (gene ACAD9, hepatocytes): 0.00 | RNA-seq results: ACADSB expression (gene ACADSB, hepatocytes): −0.29 | RNA-seq results: ACADVL expression (gene ACADVL, hepatocytes): 0.30 | RNA-seq results: ACOT8 expression (gene ACOT8, hepatocytes): −0.13 | RNA-seq results: ACOX2 expression (gene ACOX2, hepatocytes): −0.03 | RNA-seq results: ACOX3 expression (gene ACOX3, hepatocytes): −0.01 | RNA-seq results: ACSF3 expression (gene ACSF3, hepatocytes): 0.08 | RNA-seq results: ACSL1 expression (gene ACSL1, hepatocytes): −0.03 | RNA-seq results: ACSL3 expression (gene ACSL3, hepatocytes): −0.34 | RNA-seq results: ACTG2 expression (gene ACTG2, hepatocytes): −1.66 | RNA-seq results: ACTN1 expression (gene ACTN1, hepatocytes): −0.03 | RNA-seq results: ADA expression (gene ADA, hepatocytes): 0.16 | RNA-seq results: ADCK3 expression (gene ADCK3, hepatocytes): −0.02 | RNA-seq results: ADK expression (gene ADK, hepatocytes): −0.46 | RNA-seq results: ADSL expression (gene ADSL, hepatocytes): −0.36 | RNA-seq results: AFP expression (gene AFP, hepatocytes): −0.31 | RNA-seq results: AGK expression (gene AGK, hepatocytes): −0.24 | RNA-seq results: AGL expression (gene AGL, hepatocytes): −0.20 | RNA-seq results: AGPAT2 expression (gene AGPAT2, hepatocytes): 0.36 | RNA-seq results: AGPS expression (gene AGPS, hepatocytes): −0.31 | RNA-seq results: AGT expression (gene AGT, hepatocytes): −0.08 | RNA-seq results: AGTR1 expression (gene AGTR1, hepatocytes): −0.40 | RNA-seq results: AGXT expression (gene AGXT, hepatocytes): 0.44 | RNA-seq results: AHI1 expression (gene AHI1, hepatocytes): −0.18 | RNA-seq results: AHSG expression (gene AHSG, hepatocytes): 0.03 | RNA-seq results: AK1 expression (gene AK1, hepatocytes): −0.06 | RNA-seq results: AKR1C1 expression (gene AKR1C1, hepatocytes): −0.24 | RNA-seq results: AKR1C2 expression (gene AKR1C2, hepatocytes): 0.07 | RNA-seq results: AKR1C4 expression (gene AKR1C4, hepatocytes): −0.41 | RNA-seq results: AKR1D1 expression (gene AKR1D1, hepatocytes): −0.04 | RNA-seq results: ALAD expression (gene ALAD, hepatocytes): 0.07 | RNA-seq results: ALAS1 expression (gene ALAS1, hepatocytes): −0.13 | RNA-seq results: ALDH1B1 expression (gene ALDH1B1, hepatocytes): 0.10 | RNA-seq results: ALDH2 expression (gene ALDH2, hepatocytes): 0.07 | RNA-seq results: ALDH6A1 expression (gene ALDH6A1, hepatocytes): −0.48 | RNA-seq results: ALDOA expression (gene ALDOA, hepatocytes): 0.01 | RNA-seq results: ALDOB expression (gene ALDOB, hepatocytes): −0.08 | RNA-seq results: ALG12 expression (gene ALG12, hepatocytes): 0.02 | RNA-seq results: ALMS1 expression (gene ALMS1, hepatocytes): −0.05 | RNA-seq results: ALPL expression (gene ALPL, hepatocytes): −0.08 | RNA-seq results: AMACR expression (gene AMACR, hepatocytes): −0.17 | RNA-seq results: AMPD3 expression (gene AMPD3, hepatocytes): 0.13 | RNA-seq results: AMT expression (gene AMT, hepatocytes): 0.24 | RNA-seq results: ANGPTL3 expression (gene ANGPTL3, hepatocytes): −0.42 | RNA-seq results: ANKS4B expression (gene ANKS4B, hepatocytes): −0.06 | RNA-seq results: ANKS6 expression (gene ANKS6, hepatocytes): 0.15 | RNA-seq results: ANPEP expression (gene ANPEP, hepatocytes): 0.07 | RNA-seq results: AOC2 expression (gene AOC2, hepatocytes): 0.42 | RNA-seq results: AP3B1 expression (gene AP3B1, hepatocytes): −0.40 | RNA-seq results: APC expression (gene APC, hepatocytes): −0.20 | RNA-seq results: APOA1 expression (gene APOA1, hepatocytes): −0.02 | RNA-seq results: APOA2 expression (gene APOA2, hepatocytes): −0.52 | RNA-seq results: APOA5 expression (gene APOA5, hepatocytes): 0.13 | RNA-seq results: APOB expression (gene APOB, hepatocytes): −0.10 | RNA-seq results: APOC2 expression (gene APOC2, hepatocytes): −0.17 | RNA-seq results: APOC3 expression (gene APOC3, hepatocytes): −0.06 | RNA-seq results: APOE expression (gene APOE, hepatocytes): 0.04 | RNA-seq results: APRT expression (gene APRT, hepatocytes): 0.23 | RNA-seq results: AQP7 expression (gene AQP7, hepatocytes): −0.41 | RNA-seq results: AQP9 expression (gene AQP9, hepatocytes): −0.29 | RNA-seq results: ARG1 expression (gene ARG1, hepatocytes): 0.02 | RNA-seq results: ARG2 expression (gene ARG2, hepatocytes): −0.34 | RNA-seq results: ARL13B expression (gene ARL13B, hepatocytes): −0.24 | RNA-seq results: ARSA expression (gene ARSA, hepatocytes): 0.49 | RNA-seq results: ARSB expression (gene ARSB, hepatocytes): 0.03 | RNA-seq results: ASL expression (gene ASL, hepatocytes): 0.25 | RNA-seq results: ASNS expression (gene ASNS, hepatocytes): −0.22 | RNA-seq results: ASPA expression (gene ASPA, hepatocytes): −0.10 | RNA-seq results: ASXL1 expression (gene ASXL1, hepatocytes): 0.09 | RNA-seq results: ATG7 expression (gene ATG7, hepatocytes): −0.05 | RNA-seq results: ATIC expression (gene ATIC, hepatocytes): −0.26 | RNA-seq results: ATM expression (gene ATM, hepatocytes): 0.16 | RNA-seq results: ATP7A expression (gene ATP7A, hepatocytes): −0.27 | RNA-seq results: ATP7B expression (gene ATP7B, hepatocytes): 0.00 | RNA-seq results: ATP8B1 expression (gene ATP8B1, hepatocytes): −0.26 | RNA-seq results: B2M expression (gene B2M, hepatocytes): −0.52 | RNA-seq results: B9D2 expression (gene B9D2, hepatocytes): 0.35 | RNA-seq results: BAAT expression (gene BAAT, hepatocytes): −0.23 | RNA-seq results: BBOX1 expression (gene BBOX1, hepatocytes): −0.71 | RNA-seq results: BBS10 expression (gene BBS10, hepatocytes): −0.36 | RNA-seq results: BCHE expression (gene BCHE, hepatocytes): −0.32 | RNA-seq results: BCKDHB expression (gene BCKDHB, hepatocytes): −0.10
